Source: a melting point compilation (Tetko et al.; mined from patent text by program, amines drawn as free bases though some values may be those of a salt)

SMILES | melting point [°C]
COc1ccc2c(c1OCc1ccccc1)CCN(C(C)=O)C2 | 94 to 95
CC(=O)c1ccc(Nc2nc(N)c(C(=O)c3ccccc3[N+](=O)[O-])s2)cc1 | 264 to 265
Cc1nc2cccc(C3CC3CN3C(=O)c4ccccc4C3=O)c2s1 (stereo not drawn) | 151 to 153
C=CCn1ccc2cc(NC(=O)c3nc4ccc(Cl)cc4n3Cc3ccccc3)ccc21 | 154 to 155
Nc1ccc(Oc2ccc(Oc3ccc(S(=O)(=O)c4ccc(Oc5ccc(Oc6ccc(N)cc6)cc5)cc4)cc3)cc2)cc1 | 212 to 214
Cc1cc(-c2ccc(Cl)c(Cl)c2)nc(-c2ccnc(-c3ccc(S(N)(=O)=O)s3)c2)n1 | 267
CC(CCc1ccccc1)N(C)C1CCC(c2ccc(OCc3ccccc3)cc2)CC1 (racemic) | 54.5 to 55.5
CN(C)Cc1ccc(CSCCNc2ncc(Cc3ccn(C)c(=O)c3)c(=O)[nH]2)o1 | 129 to 132
Cc1cccc(CSc2c(O)cc(-c3ccccc3)oc2=O)c1 | 139 to 140
COC(=O)Cc1cc2c(cc1CC(=O)NCCc1cccc(OC)c1)OCO2 | 81 to 83
CC(C)=CCC/C(C)=C/CSc1nc2ccccc2[nH]1 | 98 to 100
O=C(CCCCCBr)Nc1cc(Cl)c(O)c(Cl)c1 | 113 to 114
COCCNC(=O)c1cccc(-c2cccc3cc(Cc4cccc(C(F)(F)F)c4)sc23)c1 | 113 to 114
O=C(c1ccccc1)c1ccc(CO)cc1 | 59 to 61
OCCOCc1c(Br)c(Br)c(COCCO)c(Br)c1Br | 145 to 147
CCOC(=O)c1cccc(OP(=O)(CCN2CCCNc3c2c(=O)c3=O)Oc2cccc(C(=O)OCC)c2)c1 | 116 to 117
CCOC(=O)c1cn(-c2ccc(OC)cc2)c(-c2ccc(OC)cc2)n1 | 142 to 143
Oc1ccc(N2CCN(CC[C@H]3CC[C@H](Nc4ncccn4)CC3)CC2)cc1 | 192 to 194
O=C(CCc1ccc(Cl)cc1Cl)NC1CC(=O)c2ccccc2NC1=O (stereo not drawn) | 234 to 236
CNc1nc(C)c(C(=O)c2sc(NC)nc2C)s1 | 184 to 185
CC(=O)NCCC1CCc2ccc3ocnc3c21 (stereo not drawn) | 89 to 92
CC(C)COP(C)(=O)CC(=O)CNC(=O)OC(C)(C)C (stereo not drawn) | 65 to 68
Cc1ccc2nc(-c3cccc(Cl)c3)oc(=O)c2c1 | 160 to 162

SMILES | melting point [°C]
CC(=O)NC(=Cc1c[nH]c2cc(Cl)ccc12)C(=O)O | 225
NC(=O)c1cc(OCCNCC(O)c2ccccn2)ccc1O (stereo not drawn) | 169 to 170
O=S(=O)(Nc1ccc(Cl)cc1C(=NOCc1ccc(Br)cc1)c1ccccc1)C(F)(F)F | 55 to 56
Cc1ccc(S(=O)(=O)Oc2ccc(C(c3ccc(OS(=O)(=O)c4ccc(C)cc4)c([N+](=O)[O-])c3)(C(F)(F)F)C(F)(F)F)cc2[N+](=O)[O-])cc1 | 206 to 208
CC(C)CN(C)c1ccccc1CS(=O)c1nc2ncccc2[nH]1 (stereo not drawn) | 116 to 118
COC(=O)C1=Cc2cc(Br)ccc2S(=O)(=O)CC1 | 162 to 164
CCOC=Nc1c(C#N)cnn1-c1ccc(Cl)c(Cl)c1Cl | 131 to 132
CC(=NC#N)NC1=CC(C)(C)Oc2ccc(C#N)cc21 | 205 to 206
CC(=O)Nc1ccc(S(=O)(=O)Nc2nc(=O)n(C3CC3)cc2C)cc1 | 176 to 181
COC(=O)NCc1nc(-c2cc(C(C)(C)C)c(O)c(C(C)(C)C)c2)cs1 | 94 to 95.9
CC(C)(C)c1ccc(-c2c(Cl)c(CN3C(=O)CCC3=O)nc3sc4c(c23)CCNC4)cc1 | 210 to 212
COc1cc2ncnc(Nc3nccc4ccccc34)c2cc1OC | 198 to 199
O=C(Nc1ccc2ccc(-c3ccc(Cl)cc3)nc2n1)c1ccccc1 | 156 to 158
CCOC(=O)c1c(S(=O)(=O)Nc2c(F)cccc2F)nn2c(C)cc(C)nc12 | 88 to 110
COc1ccc2c(c1)cc1cnc(Nc3ccc(N4CCOCC4)cc3OC)nn12 | 152 to 164
CN(C(=O)OC(C)(C)C)C(S)=NC(=O)OC(C)(C)C | 118
Cc1nc(-c2cn(CC(F)(F)c3ccccc3)nn2)sc1C(=O)NCc1cccnc1 | 150 to 151
O=C(NCc1ccccn1)c1cc(OCC(F)(F)F)ccc1OCC(F)(F)F | 100 to 103
COc1cc(CNc2nc(C)nc(C)c2Cl)ccc1Oc1ccc2ncc([N+](=O)[O-])n2n1 | 229 to 232
COc1ccc(C(=O)C2=C(O)C(=O)N(C3OCCO3)C2c2ccccc2)cc1 (stereo not drawn) | 216 to 219
O=C(O)CC(=O)Nc1ccccc1C(=O)O | 171 to 173
CCCCCCC(C(=O)O)n1cnc([N+](=O)[O-])c1 (stereo not drawn) | 112 to 114
CSc1ccc(-c2coc3ccc(-c4nnc(C)o4)cc23)cc1Cl | 200 to 201

SMILES | melting point [°C]
O=C(NC(=O)c1c(F)cccc1F)Nc1cc(C(F)(F)F)cc(C(F)(F)F)n1 | 152
Clc1ccc(-c2nc3ccccc3nc2Cl)c(Cl)c1 | 140 to 150
COCCNC(=O)c1cccc(-c2ccc(F)c3cc(Cc4cccc(S(C)(=O)=O)c4)sc23)c1 | 158 to 159
NC(=O)C1c2ccccc2SN1CCN1CCN(c2nsc3ccccc23)CC1 (stereo not drawn) | 160 to 163
Cc1ccc(N2C(=O)C(O)=C(C(=O)c3ccc(C(C)C)cc3)C2c2ccc(OC(C)C)cn2)nn1 (stereo not drawn) | 243 to 245
O=C(Nc1cc2ncc(CN3CCCC3)cc2cc1Cl)c1ccc(-c2ccc(F)cc2)cc1 | 188
CC1Oc2ccc(OCc3nc4cc(F)ccc4s3)cc2C(=O)C1Cc1cccc(NS(=O)(=O)C(F)(F)F)c1 (stereo not drawn) | 183 to 185
CCCCCCCCCCCCc1ccc(NC(C)=O)cc1 | 100 to 102
CCOC(=O)c1c(Br)cnn1-c1c(Cl)cccc1Cl | 62 to 65
O=C(O)C(CCc1ccccc1)(CCc1ccccc1)C(=O)O | 168 to 172
COC(=O)c1ccc(-c2ccc(-c3ccc4c(c3)C(C)(C)CCC4(C)C)s2)cc1 | 126 to 129
O=C(NC(Cc1ccc(OCc2ccccc2)cc1)C(=O)O)c1cn2cc(-c3ccccc3F)ccc2n1 (stereo not drawn) | 238
c1ccc(-c2ccc3[nH]nc(Nc4nccs4)c3c2)nc1 | 234 to 236
CC(=O)NCC=C1CCc2c(Cl)cc3nn(C)cc3c21 | 177 to 178
CN1C(=O)c2cccnc2N(CCO)c2ccccc21 | 133 to 134
COc1ccc2[nH]cc(C3=C(Cl)C(=O)C=C(Cl)C3=O)c2c1 | 195 to 196
OC(c1ccccc1)c1ccc2nc3ccc(C(O)c4ccccc4)cc3c(-c3ccccc3)c2c1 (stereo not drawn) | > 280
COc1ccc(C(=O)Nc2cc(NC(=O)c3cccc(N)c3)ccc2C)cc1OC | 179 to 180
O=Cc1ncn2c1[C@@H]1CCCN1C(=O)c1c(Cl)cccc1-2 | 224 to 225
OC(Cc1ccccc1)Cc1ccccc1 | 107 to 109
COc1ccc(C(=O)C=Cc2cc(O)c(O)c([N+](=O)[O-])c2)cc1 | 222 to 228

Other lines, results leading:

melting point [°C] | SMILES
240 to 242 | Oc1nsnc1-c1ccc(Cl)cc1
251 to 254 | CC(=O)Oc1ccc(-c2ccc3oc(C(=O)O)cc3c2)cc1
132 to 134 | Cc1ccc(C2CCN(C(=O)CCC(=O)c3ccc4c(c3)CCN(C(=O)C(F)(F)F)CC4)CC2)cc1
121 to 122 | COCCOc1cc(N)c([N+](=O)[O-])cc1I
95 to 97 | COc1ccc(CN2CCC(NC(=O)OC(C)(C)C)CC2)cc1
132 to 135 | O=C(O)c1ccc(OCCCCCCO)cc1
82 to 84 | CON=C(C)c1cccc(Nc2nc(OC)cc(OC)n2)c1C(=O)OC
183 to 185 | CCC(CC)Nc1cc(C(=O)OC)ccc1N1C(=O)CCC1(CO)CO
106 to 108 | Cc1ccc(Cl)c(-c2nn(C(C)(C)C(=O)N(C)C)cc2C)c1
93 to 98 | CCOC(=O)C(C)(C)Oc1ccc(OCCn2c(=O)sc3cc(C(=NOC)c4cccc(Cl)c4)ccc32)cc1
130 to 132 | COC(=O)C(C)(C(=O)OC)C(C[N+](=O)[O-])c1ccccc1 (stereo not drawn)
84 to 86 | CN1C(=O)SC(C)(C)[C@@H]1[C@@H](CS(=O)(=O)c1ccc(Oc2ccc(OC(F)(F)F)cc2)cc1)N(O)C=O
157 to 167 | CC(Oc1ccccc1)c1nnc(N)s1 (stereo not drawn)
206 to 208 | O=C(NC(=O)c1c(F)cccc1F)Nc1ccc2c(c1)SC(c1ccc(Cl)cc1Cl)O2 (stereo not drawn)
110 to 115 | CCCCCC/C(=C\c1ccccc1)CNc1cccc(-c2ccnc3c(C(=O)c4cccs4)cnn23)c1
102 | CCCCCCCCCCCCCCCCCC(CCC(=O)O)(CCC(=O)O)[N+](=O)[O-]

melting point [°C] | SMILES
181 to 182 | Nc1nnc(C(F)(F)C(Cl)Cl)s1
124 to 126 | CCn1ncc2c1ncc1c(NCCN(C)C)nc3cc(C)nn3c12
137 to 138 | CN(C)CCC(=O)n1cc(-c2ccccc2)c2ccccc21
199 to 201 | O=[N+]([O-])c1ccc(NS(=O)(=O)c2ccc(Cl)c(Cl)c2)c(Cl)c1
174 to 175 | COc1cc(C)nc(NC(=O)NS(=O)(=O)c2ccccc2CCC(F)(F)F)n1
76 to 77 | OCc1cnoc1-c1ccc(Cl)cc1Cl
154 to 155 | Cc1cc(C)c2c(c1O)C(NCc1cc(C(C)(C)C)c(O)c(C(C)(C)C)c1)CC2 (stereo not drawn)
180 to 182 | NC(=O)c1nccc(-c2ccc(Oc3ccc(F)cc3)cc2)n1
150 to 153 | CC(C)Cn1cc(F)c(-n2cncn2)nc1=O
143 to 144 | CCOC(=O)COc1cc2c(c(Cl)c1Cl)C(=O)C(c1ccc(F)cc1)C2 (stereo not drawn)
123 to 124 | CCCCOc1c(C(C)O)n(C)c(=O)c2cc(Cl)c(Cl)cc12 (stereo not drawn)
136 to 137 | CC(=O)NCC1CC(c2cc(F)c(F)c(F)c2)=NO1 (stereo not drawn)
156 to 158 | C1=C(c2cccs2)CCC(N2CCN(c3ccccn3)CC2)C1 (stereo not drawn)
100 to 103 | COC(=O)c1ccc(C)cc1N(C)S(C)(=O)=O
172 to 174 | CC(=O)COc1ccn2nc(-c3ccccc3)c(-c3ccc(=O)n(C(C)C)n3)c2c1
